Measured values published in patent US9540323B2 (BRISTOL-MYERS SQUIBB COMPANY, priority 2012, dated 2017).

Key:
[1] = biological target: cloned human P2Y1 receptors (Homo sapiens (Human), UniProt P47900); test: Binding Assay B - Scintillation Proximity Assay (SPA) for P2Y1 binding, [33P] 2MeS-ADP; settings: SPA, 0.3 nM [33P] 2MeS-ADP, Cheng-Prusoff; read-out: P2Y1 Ki (nM) using binding assay B
Procedure: Binding Assay B—Scintillation Proximity Assay (SPA) for P2Y1 Binding
A SPA membrane binding assay was used to identify inhibitors of [^33P] […] Reactions were allowed to proceed to completion at room temperature for 1 hour followed by centrifugation of the plate for 5 min. About 40 μL of the aqueous solution was aspirated. Plates were sealed and the [^33P]

[2] = system: human platelet rich plasma (PRP); test: ADP induced platelet aggregation assay; settings: Homo sapiens, Platelet, 5 min, read-out: PA IC50 (μM) @ 10 μM ADP, human PRP, 10 μM ADP, AUC at 5 minute
Procedure: The ability of P2Y1 antagonists covered in the present invention to inhibit platelet aggregation induced by 10 μM ADP was tested using human platelet rich plasma (PRP) as described in Platelet Protocols: Research and Clinical Laboratory Procedures (White, M. M. et al., Academic Press (1999)). Human blood was collected in 30 μM (final concentration in blood) argatroban (GSK) as the anticoagulant at a ratio of 1 mL per 9 mL of blood. The PRP was isolated by centrifugation at 170 g for 12 minutes. The platelet poor plasma (PPP) was used as the blank for optical aggregometry. Compounds of the present invention in DMSO solution was preincubated with 250 μL PRP at 37° C. for 1 minute with stirring speed of 1000 rpm. Aggregation was initiated by addition of 2.5 μL of 1 mM ADP (Chrono-log, Havertown, Pa.) for a final ADP concentration of 10 μM. Platelet aggregation was monitored using Optical Aggregometer (Chrono-log, Havertown, Pa.) and the area under the curve (AUC) at 5 minute was measured. IC50 was calculated using vehicle control as 0% inhibition.

Sequence of cloned human P2Y1 receptors (P47900 whole entry): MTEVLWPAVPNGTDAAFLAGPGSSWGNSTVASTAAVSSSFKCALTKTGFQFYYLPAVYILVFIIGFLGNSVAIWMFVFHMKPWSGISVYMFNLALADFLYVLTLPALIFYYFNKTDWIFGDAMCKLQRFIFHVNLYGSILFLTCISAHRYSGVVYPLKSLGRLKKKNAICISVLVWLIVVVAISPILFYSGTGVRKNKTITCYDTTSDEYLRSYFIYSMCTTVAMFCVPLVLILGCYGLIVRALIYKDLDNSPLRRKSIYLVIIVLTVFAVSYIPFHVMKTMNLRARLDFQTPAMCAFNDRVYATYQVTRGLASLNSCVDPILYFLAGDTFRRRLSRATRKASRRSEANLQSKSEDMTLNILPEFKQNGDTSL

Structure (SMILES) | Ki [1] [nM] | IC50 [2] [µM]
CC1(C)CN(c2ccccc2NC(=O)Nc2nc3ccc(Cl)cc3s2)c2c(O)cc(F)c(-c3ccc(Cl)cc3)c21 [Example 225, 1-(6-Chlorobenzo[d]thiazol-2-yl)-3-(2-(4-(4-chlorophenyl)-5-fluoro-7-hydroxy-3,3-dimethylindolin-1-yl)phenyl)urea] | 34.7 | 0.36
CCOC(=O)C1(C)CN(c2ccccc2NC(=O)Nc2nc3ccc(Cl)nc3s2)c2c(O)ccc(Cl)c21 (stereo not drawn) [Example 77, Ethyl 4-chloro-1-(2-(3-(5-chlorothiazolo[5,4-b]pyridin-2-yl)ureido)phenyl)-7-hydroxy-3-methylindoline-3-carboxylate] | 12.9 | 0.61
CC1(C)CN(c2ccccc2NC(=O)Nc2nc3ccc(Cl)cc3s2)c2c(O)cc(F)c(-c3cc(C(F)(F)F)no3)c21 [Example 265, 1-(6-Chlorobenzo[d]thiazol-2-yl)-3-(2-(5-fluoro-7-hydroxy-3,3-dimethyl-4-(3-(trifluoromethyl)isoxazol-5-yl)indolin-1-yl)phenyl)urea] | 49.9 | 0.4
CCC1(CC)CN(c2ccccc2NC(=O)Nc2ccc(C3CCN(CC(C)(C)C)CC3)cc2)c2c(O)ccc(F)c21 [Example 4, 1-(2-(3,3-Diethyl-4-fluoro-7-hydroxyindolin-1-yl)phenyl)-3-(4-(1-neopentylpiperidin-4-yl)phenyl)urea] | 5.6 | 0.36
CCC1(CC)CN(c2ccccc2NC(=O)Nc2ccc(OC(F)(F)F)cc2)c2c(O)ccc(C)c21 [Example 71, 1-(2-(3,3-Diethyl-7-hydroxy-4-methylindolin-1-yl)phenyl)-3-(4-(trifluoromethoxy)phenyl)urea] | 6.8 | 0.5
Cc1cccc2oc(-c3ccc(O)c4c3C(C)(C)CN4c3ccccc3NC(=O)Nc3ccc(OC(F)(F)F)cc3)nc12 [Example 90, 1-(2-(7-Hydroxy-3,3-dimethyl-4-(4-methylbenzo[d]oxazol-2-yl)indolin-1-yl)phenyl)-3-(4-(trifluoromethoxy)phenyl)urea] | 56.7 | 0.43
CCC1(CC)CN(c2ccccc2NC(=O)Nc2ccc(OC(F)(F)F)cc2)c2c(O)ccc(Br)c21 [Example 39, 1-(2-(3,3-Diethyl-4-bromo-7-hydroxyindolin-1-yl)phenyl)-3-(4-(trifluoromethoxy)phenyl)urea] | 18.8 | 0.51
CC1(C)CN(c2ccccc2NC(=O)Nc2ccc(OC(F)(F)F)cc2)c2c(O)ccc(-c3cnc(Cl)cn3)c21 [Example 131, 1-(2-(4-(5-Chloropyrazin-2-yl)-7-hydroxy-3,3-dimethylindolin-1-yl)phenyl)-3-(4-(trifluoromethoxy)phenyl)urea] | 9.1 | 0.42
CC1(C)CN(c2ccccc2NC(=O)Nc2nc3ccc(F)cc3s2)c2c(O)cc(F)c(-c3ccc(C(F)(F)F)cn3)c21 [Example 168, 1-(2-(5-Fluoro-7-hydroxy-3,3-dimethyl-4-(5-(trifluoromethyl)pyridin-2-yl)indolin-1-yl)phenyl)-3-(6-fluorobenzo[d]thiazol-2-yl)urea] | 29.4 | 0.45
COc1ccc2nc(-c3ccc(O)c4c3C(C)(C)CN4c3ccccc3NC(=O)Nc3ccc(OC(F)(F)F)cc3)oc2c1 [Example 94, 1-(2-(7-Hydroxy-4-(6-methoxybenzo[d]oxazol-2-yl)-3,3-dimethylindolin-1-yl)phenyl)-3-(4-(trifluoromethoxy)phenyl)urea] | 39.5 | 0.48
CC1(C)CN(c2ccccc2NC(=O)Nc2ccc(OC(F)(F)F)cc2)c2c(O)ccc(-c3ccc(Cl)cc3)c21 [Example 205, 1-(2-(4-(4-Chlorophenyl)-7-hydroxy-3,3-dimethylindolin-1-yl)phenyl)-3-(4-(trifluoromethoxy)phenyl)urea] | 6.7 | 0.14
CCC1(CC)CN(c2ccccc2NC(=O)Nc2ccc(C3CCCN3CC(C)(C)C)cc2)c2c(O)ccc(F)c21 (stereo not drawn) [Example 29, 1-(2-(3,3-Diethyl-4-fluoro-7-hydroxyindolin-1-yl)phenyl)-3-(4-(1-neopentylpyrrolidin-2-yl)phenyl)urea] | 3.6 | 0.3
CC1(C)CN(c2ccccc2NC(=O)Nc2ccc(OC(F)(F)F)cc2)c2c(O)cc(F)c(-c3ccc(F)cn3)c21 [Example 159, 1-(2-(5-Fluoro-4-(5-fluoropyridin-2-yl)-7-hydroxy-3,3-dimethylindolin-1-yl)phenyl)-3-(4-(trifluoromethoxy)phenyl)urea] | 7.4 | 0.3
CC1(C)CN(c2ccccc2NC(=O)Nc2ccc(OC(F)(F)F)cc2)c2c(O)cc(F)c(-c3ccc(F)cc3)c21 [Example 194, 1-(2-(5-Fluoro-4-(4-fluorophenyl)-7-hydroxy-3,3-dimethylindolin-1-yl)phenyl)-3-(4-(trifluoromethoxy)phenyl)urea] | 6.7 | 0.26
CC1(C)CN(c2ccccc2NC(=O)Nc2ccc(OC(F)(F)F)cc2)c2c(O)c(F)cc(-c3ccc(F)cc3)c21 [Example 232, 1-(2-(6-Fluoro-4-(4-fluorophenyl)-7-hydroxy-3,3-dimethylindolin-1-yl)phenyl)-3-(4-(trifluoromethoxy)phenyl)urea] | 14.7 | 0.39
CC1(C)CN(c2ccccc2NC(=O)Nc2ccc(C(F)(F)F)cc2)c2c(O)ccc(Cl)c21 [Example 57, 1-(2-(4-Chloro-7-hydroxy-3,3-dimethylindolin-1-yl)phenyl)-3-(4-(trifluoromethyl)phenyl) urea] | 8.3 | 0.9
CC(C)n1nc(C(F)(F)F)cc1-c1c(F)cc(O)c2c1C(C)(C)CN2c1ccccc1NC(=O)Nc1nc2ccc(Cl)cc2s1 [Example 268, 1-(6-Chlorobenzo[d]thiazol-2-yl)-3-(2-(5-fluoro-7-hydroxy-4-(1-isopropyl-3-(trifluoromethyl)-1H-pyrazol-5-yl)-3,3-dimethylindolin-1-yl)phenyl)urea] | 18.1 | 0.45
CCC1(CC)CN(c2ccccc2NC(=O)Nc2ccc(C3CCN(CC(C)C)CC3)cc2)c2c(O)ccc(F)c21 [Example 28, 1-(2-(3,3-Diethyl-4-fluoro-7-hydroxyindolin-1-yl)phenyl)-3-(4-(1-isobutylpiperidin-4-yl)phenyl)urea] | 8.1 | 0.54
CC1(C)CN(c2ccccc2NC(=O)Nc2ccc(OC(F)(F)F)cc2)c2c(O)cc(F)c(-c3ccc(F)c(Cl)c3)c21 [Example 237, 1-(2-(4-(3-Chloro-4-fluorophenyl)-5-fluoro-7-hydroxy-3,3-dimethylindolin-1-yl)phenyl)-3-(4-(trifluoromethoxy)phenyl)urea] | 21.5 | 0.48
Cc1ccc2nc(-c3ccc(O)c4c3C(C)(C)CN4c3ccccc3NC(=O)Nc3ccc(OC(F)(F)F)cc3)oc2c1 [Example 95, 1-(2-(7-Hydroxy-3,3-dimethyl-4-(6-methylbenzo[d]oxazol-2-yl)indolin-1-yl)phenyl)-3-(4-(trifluoromethoxy)phenyl)-urea] | 33.3 | 0.46
CCC1(CC)CN(c2ccccc2NC(=O)Nc2nc3c(s2)CN(CC(C)C)CC3)c2c(O)ccc(Cl)c21 [Example 54, 1-(2-(4-Chloro-3,3-diethyl-7-hydroxyindolin-1-yl)phenyl)-3-(5-isobutyl-4,5,6,7-tetrahydrothiazolo[5,4-c]pyridin-2-yl)urea] | 13.3 | 0.15
CC1(C)CN(c2ccc(F)cc2NC(=O)Nc2nc3ccc(F)cc3s2)c2c(O)ccc(C(F)(F)F)c21 [Example 63, 1-(5-Fluoro-2-(7-hydroxy-3,3-dimethyl-4-(trifluoromethyl)indolin-1-yl)phenyl)-3-(6-fluorobenzo[d]thiazol-2-yl)urea] | 20.8 | 0.18
CC1(C)CN(c2ccccc2NC(=O)Nc2csc(Cl)n2)c2c(O)ccc(Br)c21 [Example 6, 1-(2-(4-Bromo-7-hydroxy-3,3-dimethylindolin-1-yl)phenyl)-3-(2-chlorothiazol-4-yl)urea] | 24.4 | 0.31
CC1(C)CN(c2ccccc2NC(=O)Nc2ccc(OC(F)(F)F)cc2)c2c(O)ccc(C3=NCC(C(F)(F)F)O3)c21 (stereo not drawn) [Example 105, 1-(2-(7-Hydroxy-3,3-dimethyl-4-(5-(trifluoromethyl)-4,5-dihydrooxazol-2-yl)indolin-1-yl)phenyl)-3-(4-(trifluoromethoxy)phenyl)urea] | 8.8 | 1.57
